Data set [1] deals with SH-SY5Y cells (human neuroblastoma cells). Nature of the data set: Toxicity test (MTT) with human neuroblastoma cells. The settings on record: 10 μM peptide or SEC fractions, 12 h. The data set is classed as cell-based. Here is the method:
SH—SY5Y cells were routinely cultured in DMEM/Ham'sF12 medium (PAA) supplemented with 10% (v/v) bovine calf serum, 2 mM glutamine, 0.1 mM non-essential amino acids and 0.5 mM sodium pyruvate in a 5% CO2 humidified atmosphere at 37° C.
Cells were plated at a density of 1.000 cells per well in 100 μl of fresh medium on 96-well plates. After 48 h medium was replaced by DMEM/Ham's F12 with 100 Uml^−1 penicillin and 10 μg streptomycin including 10 μM peptide, freshly dissolved in H2O containing 0.125% NH3 or fractions received by size exclusion chromatography. Probe and control were incubated for 12 h. Cell mediated reduction of 3-(4,5-dimethylthiazol-2-yl)-2,5-diphenyltetrazolium bromide (MTT) was used to monitor Aβ toxicity by addition of 10 μl of a 5 mgml^−1 MTT stock solution and incubation for further 1-2 h. Before measuring the absorbance of blue formazan at 562 nm using an automatic micro plate reader, cells were lysed with 50 μl DMSO for 10 minutes at room temperature.
The toxic effects of various oligomers on human neuroblastoma cells was determined by use of the MTT test allowing to quantify the toxicity.

The test system of data set [2] is primary hippocampal rat neurons. Nature of the data set: Toxicity test (MultiTox-Fluor) with primary hippocampal rat neurons. The data set is classed as cell-based. The settings on record: normalized peptide concentration, 48 h. Here is the method: Hippocampi from P0-P1 Wistar rat pups were used for primary neuronal dissociated cultures. Tissue was dissected in HBSS containing Ca^2+ and Mg^2+ and incubated with an enzyme solution containing 1 mM CaCl2, 0.5 mM EDTA Ph 8.0, 2 mg/ml Cystein and 200-250 units papain (Worthington) in BME for 60 min at 37° C. Supernatant was removed and cells were incubated in inactivation solution (2.5 mg/ml BSA, 2.5 mg/ml Trypsin inhibitor (both Sigma) and 10% FCS in BME) for 5 min at. RT. Tissue clumps were dissociated by repeated passage through 1 ml pipettes. Cells were centrifuged for 10 min at 12000 rpm, 4° C. and resuspended in Neurobasal A medium supplemented with 2% B27, 2 mM Glutamax and 0.2% Penicillin/Streptomycin (all Gibco). Neurons were cultured on glia cell feeder layers in 96 well plates with 5×10^3 cells in 100 μl medium. For feeder layer cultures rat P0-P1 cortices were prepared as described above and cultured at a density of 1×10^6 cells in a T75 flask for at least one week in BME medium supplemented with 10% FCS, 5 mM glucose, 1 mM Glutamax, 10 mM Hepes, 2.5 μg/ml insulin, 0.2% Penicillin/Streptomycin. Cells were trypsinized and 2×10^3 cells per well were seeded in 96 wells plates four days before neurons were added.
After ten days of incubation neuronal cultures were treated with Aβ1-42 freshly dissolved in H2O or with SEC fractions for another 48 h. Neuronal viability was detected by using MultiTox-Fluor Multiplex Cytotxicity assay (Promega) as recommended by the producer.
Cells treated with buffer only were set as non-toxic.

The test system of data set [3] is acute hippocampal rat brain sections or slices (area CA1 fEPSPs). Nature of the data set: Long term potentiation (LTP) of acute hippocampal rat brain slices. The note with it: slices incubated with 500 nM peptide 20 min prior to tetanisation. The procedure:
Hippocampal slices were prepared from 3-6 week old Wistar rats. Rats were decapitated under ether anesthesia. The brain was removed quickly and sectioned into 300 μm thick slices using a vibroslicer (Leica). The slices were maintained at room temperature in a holding chamber containing oxygenated artificial cerebrospinal fluid (ACSF; 129 mM NaCl, 1 mM NaH2PO4, 10 mM Glucose, 1.8 mM MgSO4, 1.6 mM CaCl2, 3 mM KCl, NaHCO3 21 mM). (Ringer: 119 mM NaCl, 1 mM NaH2PO4, 10 mM Glucose, 1.3 mM MgSO4, 2.5 mM CaCl2, 2.5 mM KCl, NaHCO3 26 mM) Ph 7.2-7.4 Osmolarität 0.28-0.31 Osmol/kg.
After at least 1 h equilibration, slices were transferred into submerged recording chamber and continuously perfuse with room temperature oxygenated ACSF at 3 ml/min throughout the experiments. […] Peptide was not washed during the experiment.
Field excitatory postsynaptic potentials (fEPSPs) were recorded of stratum radiatum area CA1 evoked by Schaffer collateral stimulation with ACSF filled electrodes. Two independent pathways were measured whereas two stimulating electrodes lay parallel to each other.
Baseline responses were collected using test pulses that yield 30-40% of the maximal fEPSP slope. LTP was induced by Theta brust stimulation (TBS) of one of the two pathways. The inter-theta burst stimulation interval was 20 sec and four TBSs were applied to induce LTP. TBS consisted of 10 bursts delivered at 5 Hz. Each burst consisted of four pulses delivered at 100 Hz with a pulse-duration of 0.2 msec. (Evers M., Salmen B., Schachner M., 2002 J. Neuroscience)
The amount of LTP was described as percent changes of (EPSP slopes after TBS normalized to baseline values with an additional subtraction of the second, unstimulated pathway. Slopes were analysed using IGOR program.
In order to assay whether Aβ oligomers show an effect on learning and commemoration LTP (long term potentiation) of acute hippocampal sections of rat brains was determined. Several recent publications report on the inhibition of LTP by Aβ1-42. This effect can be equated with cognitive deficiencies observed for AD patients. In order to further improve these performance tests and to minimize possible side effects of the peptides on the general network plasticity of the sections, two independent neuronal pathways were assayed. Whereas the first pathway was stimulated for inducing LTP, the second one was assayed unstimulated as a control. It could be confirmed that Aβ peptides inhibit LTP.

Data set [4] in a line: Size exclusion chromatography of freshly dissolved Aβ1-42 peptides (oligomer size distribution). The data set is classed as physicochemical. The settings on record: freshly dissolved peptide 1 mg/ml, Superose 12 column, 1×PBS. The procedure: In order to discriminate the various oligomeric forms of Aβ wildtype and mutant peptides, a size exclusion chromatography was performed. Therefore, a Superose 12 column (Amersham Bioscience) was equilibrated with 1×PBS (137 mM NaCl, 2.7 mM KCl, 10 mM Na2HPO4, 2 mM KH2PO4) under conditions recommended by the manufacturer. Thereafter 1 mg peptide was monomerized with 50 μl concentrated formic acid and evaporated. Peptides were solubilized in H2O containing 0.125% NH3 to a final concentration of 1 mg/ml.
A volume of 500 μl was centrifuged at maximal speed for 10 minutes and loaded on the column with a flow rate of 0.5 ml/min. For determination of the peptide concentration, fractions were tested with Bradford-, BCA-assay and dot blot analysis. The collected fractions were immediately applied for further analysis.
In this study it was investigated to what extent the GxxxG motif effects the aggregation of Aβ1-42 peptides. Aβ1-42 peptides and the oligomers were separated by use of SEC.
In general terms: Size exclusion chromatography separates by hydrodynamic size, large species first.

“Also recorded” adds a separate entry of the source.

Turning to “Aβ1-42 tetramers: tetramers (SEC fraction) of wild type Aβ1-42 peptide [reference compound]”, in data set [1], the “toxic effect (MTT)” value is given as “highest toxicity”. For the same substance, the “toxic effect (Multi-tox)” value in data set [2] is “highest toxicity”. Moreover, in data set [3], the “LTP induction after theta burst stimulation” value (shortened to “LTP induction”) is recorded as “cause a measurable loss of cognitive performance”.
As to “Aβ1-42 wt: wild type amyloid beta 1-42 peptide containing the G29xxxG33 motif [reference compound]”, the “toxic effect (MTT)” value in data set [1] is reported as “strong toxic effect”. For the same substance, in data set [2], the “toxic effect (Multi-tox)” value was “strong toxic effect”. The “LTP induction” value in data set [3] is reported as “no LTP is induced”. The “oligomer size distribution / aggregation by SEC” value in data set [4] was “immediately aggregates to 4- and 6-mers”; in data set [4] (listed as Aβ1-42) it was 4- to 6mers.
Turning to “Aβ1-42G29/33A: Aβ1-42 double mutant G29/33A”, the “toxic effect (MTT)” value in data set [1] was “only weak toxicity”. Besides, the “toxic effect (Multi-tox)” value in data set [2] is on record as “weak toxicity”. Also, the “oligomer size distribution / aggregation by SEC” value in data set [4] is “Most of the oligomers have a low MW, but large amounts of oligomers having a higher MW are already visible”.
As to “Aβ1-42G29A: Aβ1-42 peptide with mutation at position 29 (G to A)”, the “toxic effect (MTT)” value in data set [1] was “strong toxic effect”. Further, the “toxic effect (Multi-tox)” value in data set [2] is listed as “strong toxic effect”.
With “Aβ1-42G33A tetramers: tetramers of the Aβ1-42G33A peptide”, in data set [1], the “toxic effect (MTT)” value was “no toxic effects were observed”. In addition, the “LTP induction” value in data set [3] is “correspond to the results obtained for Aβ1-42G331”; in data set [3] (listed as tetramers of the Aβ1-42G33A peptide), “LTP could be induced”.
On to “Aβ1-42G33A: Aβ1-42 peptide with glycine at position 33 replaced by alanine”, for which the “oligomer size distribution / aggregation by SEC” value is “shift to oligomers with a higher MW” in data set [4] and “minor amounts of tetramers are still detectable” in data set [4] (listed as G33A).
“Aβ1-42G331: Aβ1-42 peptide with glycine at position 33 replaced by isoleucine”: the “LTP induction” value in data set [3] is recorded as “induced LTP shows the same value as the control; also recorded: LTP could be induced”.

For the origin of these results see patent US20110113495A1, “SCREENING METHOD FOR AGENTS SUITABLE FOR PROPHYLAXIS AND THERAPY OF ALZHEIMER'S DISEASE (AD)” (priority 2008, published 2011).
